Reference: PubChem BioAssay AID248 (DTP/NCI, 2004)
“And” between values parts separate entries of the source, which are not always exact repeats. Equal entries are not always repeated. Inconclusive results and toxic doses are left out. Rule as the data show it: active = T/C of 150% or more; inactive = T/C below 125%.

System: L1210 leukemia ip in BDF1 mice, survival T/C
Assay: NCI In Vivo Anticancer Drug Screen. Data for tumor model L1210 Leukemia (intraperitoneal) in B6D2F1 (BDF1) mice
Conditions: endpoint: mean survival time, higher = longer survival
In short: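 Each compound was tested against a transplantable tumor grown in mice. The endpoint was survival, with treated animals benchmarked against vehicle controls as a simple ratio.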

[1] = dose: 100.0 mg/kg/injection, schedule: Q01DX001 (ip), vehicle: saline
[2] = dose: 100.0 mg/kg/injection, schedule: Q04DX003 (ip), vehicle: saline
[3] = dose: 200.0 mg/kg/injection, schedule: Q01DX001 (ip), vehicle: saline
[4] = dose: 200.0 mg/kg/injection, schedule: Q04DX003 (ip), vehicle: saline
[5] = dose: 100.0 mg/kg/injection, schedule: Q01DX009 (ip), vehicle: Klucel (hydroxypropylcellulose) (HPC)
[6] = dose: 200.0 mg/kg/injection, schedule: Q01DX009 (ip), vehicle: Klucel (hydroxypropylcellulose) (HPC)
[7] = dose: 400.0 mg/kg/injection, schedule: Q01DX009 (ip), vehicle: Klucel (hydroxypropylcellulose) (HPC)
[8] = dose: 100.0 mg/kg/injection, schedule: Q01DX009 (ip), vehicle: saline
[9] = dose: 400.0 mg/kg/injection, schedule: Q04DX003 (ip), vehicle: saline
[10] = dose: 100.0 mg/kg/injection, schedule: Q04DX003 (ip), vehicle: Klucel (hydroxypropylcellulose) (HPC)
[11] = dose: 200.0 mg/kg/injection, schedule: Q04DX003 (ip), vehicle: Klucel (hydroxypropylcellulose) (HPC)
[12] = dose: 400.0 mg/kg/injection, schedule: Q04DX003 (ip), vehicle: Klucel (hydroxypropylcellulose) (HPC)
[13] = dose: 100.0 mg/kg/injection, schedule: Q01DX001 (ip), vehicle: saline with Tween-80
[14] = dose: 200.0 mg/kg/injection, schedule: Q01DX001 (ip), vehicle: saline with Tween-80
[15] = dose: 400.0 mg/kg/injection, schedule: Q01DX001 (ip), vehicle: saline with Tween-80

Measured: T/C

N#C/C([SH2+])=C(/[SH2+])C#N.N#C/C([SH2+])=C(/[SH2+])C#N.N#C/C([SH2+])=C(/[SH2+])C#N.N#C/C([SH2+])=C(/[SH2+])C#N.[Co+3].[Co+3].c1ccc([P+](c2ccccc2)(c2ccccc2)c2ccccc2)cc1
inactive: dose: 50.0 mg/kg/injection, schedule: Q04DX003 (ip), vehicle: saline 105 % of control | [1] 105 % of control | [2] 97 % of control | [3] 109 % of control | [4] 108 % of control

CC(=O)NC1CCCCC1c1ccc(C2CCCCC2NC(C)=O)cc1 (stereo not drawn)
inactive: [1] 98 % of control | [3] 98 % of control

CNC(=O)OCC1=CC(=O)C=CC1=O
inactive: dose: 6.25 mg/kg/injection, schedule: Q04DX003 (ip), vehicle: Klucel (hydroxypropylcellulose) (HPC) 92 % of control | dose: 12.5 mg/kg/injection, schedule: Q01DX001 (ip), vehicle: Klucel (hydroxypropylcellulose) (HPC) 93 % of control | dose: 12.5 mg/kg/injection, schedule: Q04DX003 (ip), vehicle: Klucel (hydroxypropylcellulose) (HPC) 94 % of control | dose: 25.0 mg/kg/injection, schedule: Q01DX001 (ip), vehicle: Klucel (hydroxypropylcellulose) (HPC) 96 % of control

O=c1[nH]ncc2ccc([N+](=O)[O-])cc12
inactive: dose: 75.0 mg/kg/injection, schedule: Q01DX001 (ip), vehicle: other 103 % of control | dose: 150.0 mg/kg/injection, schedule: Q01DX001 (ip), vehicle: other 101 % of control

O=C(Nc1ccc(C2=NCCN2)cc1)c1cccc(NC(=S)Nc2ccc(C3=NCCN3)cc2)c1
inactive: dose: 5.0 mg/kg/injection, schedule: Q01DX Z (ip), vehicle: saline 107 % of control and 122 % of control | dose: 20.0 mg/kg/injection, schedule: Q01DX Z (ip), vehicle: saline 102 % of control and 113 % of control | dose: 60.0 mg/kg/injection, schedule: Q01DX Z (oral), vehicle: saline 103 % of control | dose: 120.0 mg/kg/injection, schedule: Q01DX Z (oral), vehicle: saline 111 % of control

CNC1(c2ccc(F)cc2)CCCCC1
inactive: dose: 50.0 mg/kg/injection, schedule: Q01DX001 (ip), vehicle: saline 98 % of control | [1] 98 % of control

CN(C)C(=O)NC1CCc2ccccc21 (stereo not drawn)
inactive: dose: 100.0 mg/kg/injection, schedule: Q01DX001 (ip), vehicle: other 95 % of control | dose: 200.0 mg/kg/injection, schedule: Q01DX001 (ip), vehicle: other 93 % of control | dose: 400.0 mg/kg/injection, schedule: Q01DX001 (ip), vehicle: other 93 % of control

COc1ccc(C(O)c2cc3ccccc3[nH]2)cc1 (stereo not drawn)
inactive: dose: 100.0 mg/kg/injection, schedule: Q04DX002 (ip), vehicle: Klucel (hydroxypropylcellulose) (HPC) 95 % of control | dose: 200.0 mg/kg/injection, schedule: Q04DX002 (ip), vehicle: Klucel (hydroxypropylcellulose) (HPC) 109 % of control | dose: 400.0 mg/kg/injection, schedule: Q04DX002 (ip), vehicle: Klucel (hydroxypropylcellulose) (HPC) 106 % of control

COc1ccc(N)cc1
inactive: dose: 100.0 mg/kg/injection, schedule: Q01DX009 (ip), vehicle: alcohol 121 % of control | dose: 200.0 mg/kg/injection, schedule: Q01DX009 (ip), vehicle: alcohol 88 % of control

O=C(Nc1cccc(F)c1)Nc1cc(Cl)ccc1Cl
inactive: [5] 96 % of control and 86 % of control | [6] 102 % of control | [7] 95 % of control and 92 % of control

CCOC(=O)C(=O)C1C(=O)C(=O)C(c2ccccc2)C1=O (stereo not drawn)
inactive: dose: 75.0 mg/kg/injection, schedule: Q01DX001 (ip), vehicle: carboxymethylcellulose (CMC) 104 % of control | dose: 150.0 mg/kg/injection, schedule: Q01DX001 (ip), vehicle: carboxymethylcellulose (CMC) 100 % of control | dose: 300.0 mg/kg/injection, schedule: Q01DX001 (ip), vehicle: carboxymethylcellulose (CMC) 105 % of control

CCCNCCN
inactive: dose: 50.0 mg/kg/injection, schedule: Q01DX009 (ip), vehicle: saline 98 % of control | [8] 102 % of control | [2] 97 % of control | [4] 99 % of control

CN(C)/C=C(/C#N)C(=O)N1CCCC1
inactive: [8] 106 % of control | [2] 101 % of control | dose: 200.0 mg/kg/injection, schedule: Q01DX009 (ip), vehicle: saline 102 % of control | [4] 101 % of control | dose: 400.0 mg/kg/injection, schedule: Q01DX009 (ip), vehicle: saline 112 % of control | [9] 117 % of control

OC1(C#CC#CC2(O)CCCCC2)CCCCC1
inactive: [2] 92 % of control | [4] 98 % of control | [9] 93 % of control

CCc1[nH]c(=S)ncc1-c1ccc([N+](=O)[O-])cc1O
inactive: [10] 93 % of control | [11] 93 % of control | [12] 106 % of control

CC1(C)C2CCC(O)C1C2 (stereo not drawn)
inactive: [13] 104 % of control | [14] 97 % of control | [15] 90 % of control

Oc1cccc(-c2cccc(OCCCCCCCCCCBr)c2)c1
inactive: dose: 12.5 mg/kg/injection, schedule: Q01DX009 (ip), vehicle: DMSO 108 % of control | dose: 25.0 mg/kg/injection, schedule: Q01DX009 (ip), vehicle: DMSO 94 % of control | dose: 100.0 mg/kg/injection, schedule: Q04DX003 (ip), vehicle: DMSO 92 % of control | dose: 200.0 mg/kg/injection, schedule: Q04DX003 (ip), vehicle: DMSO 91 % of control

C/C=C(/C)C(=O)O[C@H]1CC[C@@]2(C)[C@@H]3CC[C@H]4[C@]5(O)C[C@H](O)[C@@]6(O)[C@@H](CN7C[C@@H](C)CC[C@H]7[C@@]6(C)O)[C@]5(O)C[C@@]42O[C@@]13O
inactive: dose: 0.5 mg/kg/injection, schedule: Q01DX001 (ip), vehicle: saline 95 % of control | dose: 1.0 mg/kg/injection, schedule: Q01DX001 (ip), vehicle: saline 98 % of control | dose: 1.5 mg/kg/injection, schedule: Q04DX003 (ip), vehicle: saline with Tween-80 102 % of control | dose: 2.0 mg/kg/injection, schedule: Q01DX001 (ip), vehicle: saline 95 % of control | dose: 4.0 mg/kg/injection, schedule: Q01DX001 (ip), vehicle: saline 101 % of control | dose: 5.0 mg/kg/injection, schedule: Q01DX001 (ip), vehicle: saline 95 % of control

CCOC(=O)CCCc1cccc(OC)c1OC
inactive: [13] 91 % of control | [14] 91 % of control | [15] 98 % of control

CN(C)/C=N/Nc1ccc([N+](=O)[O-])cc1[N+](=O)[O-]
inactive: [5] 94 % of control | [10] 102 % of control | [6] 94 % of control | [11] 97 % of control | [7] 96 % of control | [12] 97 % of control

O=C1/C(=C/c2ccc(O)c(O)c2)Cc2ccccc21
inactive: [10] 117 % of control | [11] 105 % of control | [12] 104 % of control

CCCC(C#N)(c1ccccc1)c1ccccc1
inactive: dose: 100.0 mg/kg/injection, schedule: Q01DX001 (ip), vehicle: Klucel (hydroxypropylcellulose) (HPC) 97 % of control | [5] 95 % of control | [10] 91 % of control | dose: 200.0 mg/kg/injection, schedule: Q01DX001 (ip), vehicle: Klucel (hydroxypropylcellulose) (HPC) 92 % of control | [6] 95 % of control | [11] 104 % of control | dose: 400.0 mg/kg/injection, schedule: Q01DX001 (ip), vehicle: Klucel (hydroxypropylcellulose) (HPC) 102 % of control | [12] 94 % of control

C1CCC(C2CCCC(C3CCCCC3)C2)CC1 (stereo not drawn)
inactive: dose: 100.0 mg/kg/injection, schedule: Q01DX001 (ip), vehicle: carboxymethylcellulose (CMC) 94 % of control | dose: 200.0 mg/kg/injection, schedule: Q01DX001 (ip), vehicle: carboxymethylcellulose (CMC) 96 % of control | dose: 400.0 mg/kg/injection, schedule: Q01DX001 (ip), vehicle: carboxymethylcellulose (CMC) 94 % of control

CCCC(=O)N1CCCC(C)C1 (stereo not drawn)
inactive: dose: 100.0 mg/kg/injection, schedule: Q04DX002 (ip), vehicle: saline 111 % of control | dose: 200.0 mg/kg/injection, schedule: Q04DX002 (ip), vehicle: saline 107 % of control | dose: 400.0 mg/kg/injection, schedule: Q04DX002 (ip), vehicle: saline 104 % of control
